Results taken from ChEMBL document CHEMBL1144829, “2-Arylbenzoxazoles as novel cholesteryl ester transfer protein inhibitors: optimization via array synthesis” (Bioorg Med Chem Lett, 2008).

Experiments:
[1] = molecular target: T1, Cholesteryl ester transfer protein (Homo sapiens, UniProt P11597); test: Inhibition of human CETP by scintillation proximity assay
T1 sequence (P11597 whole entry): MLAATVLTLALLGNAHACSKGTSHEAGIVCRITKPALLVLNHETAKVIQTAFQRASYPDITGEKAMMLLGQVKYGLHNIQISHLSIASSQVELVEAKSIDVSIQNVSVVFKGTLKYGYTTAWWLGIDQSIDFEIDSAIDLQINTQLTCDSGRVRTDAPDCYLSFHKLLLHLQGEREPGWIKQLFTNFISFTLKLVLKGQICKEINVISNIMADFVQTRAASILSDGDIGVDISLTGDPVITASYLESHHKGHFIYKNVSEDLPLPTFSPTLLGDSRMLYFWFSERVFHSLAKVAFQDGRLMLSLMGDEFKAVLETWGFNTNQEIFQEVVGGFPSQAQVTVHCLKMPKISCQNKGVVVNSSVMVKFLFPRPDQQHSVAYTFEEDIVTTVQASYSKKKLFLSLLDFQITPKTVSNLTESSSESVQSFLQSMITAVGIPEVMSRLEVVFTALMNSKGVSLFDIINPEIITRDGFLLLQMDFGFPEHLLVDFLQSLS

[2] = molecular target: T1, Cholesteryl ester transfer protein; test: Inhibition of CETP in human whole plasma

| Structure (SMILES) | IC50 [1] | IC50 [2] |
| --- | --- | --- |
| Cc1cc(C)c2oc(-c3ccc(NC(=O)COc4c(Cl)cccc4Cl)cc3)nc2c1 | > 10 µM |  |
| Cc1cc(C)c2oc(-c3ccc(NC(=O)COc4ccc(C#N)cc4)cc3)nc2c1 | > 10 µM |  |
| Cc1cc(C)c2oc(-c3ccc(NC(=O)COc4ccc(Cl)c(C(F)(F)F)c4)cc3)nc2c1 | 0.12 µM | 4.9 µM |
| Cc1ccccc1OCC(=O)Nc1ccc(-c2nc3c(C)cccc3o2)cc1 | > 32 µM |  |
| Cc1ccccc1OCC(=O)Nc1ccc(-c2nc3cc(C#N)cc(Cl)c3o2)cc1 | 0.052 µM | 2.5 µM |
| COc1ccc2nc(-c3ccc(NC(=O)COc4ccccc4C)cc3)oc2c1 | > 32 µM |  |
| Cc1cc(C)c2oc(-c3ccc(NC(=O)COc4ccc(F)cc4)cc3)nc2c1 | 7.3 µM | 31 µM |
| Cc1cc(C)c2oc(-c3ccc(NC(=O)COc4ccccc4OC(F)(F)F)cc3)nc2c1 | 0.2 µM |  |
| Cc1cc(Cl)ccc1OCC(=O)Nc1ccc(-c2nc3cc(C#N)ccc3o2)cc1 | 0.085 µM | 40 µM |
| Cc1cc(C)c2oc(-c3ccc(NC(=O)COc4ccccc4C(F)(F)F)cc3)nc2c1 | 1.9 µM | 91 µM |
| COC(=O)c1cccc2nc(-c3ccc(NC(=O)COc4ccccc4C)cc3)oc12 | 3.5 µM | 80 µM |
| COc1ccc2oc(-c3ccc(NC(=O)COc4ccccc4C)cc3)nc2c1 | > 32 µM |  |
| Cc1ccccc1OCC(=O)Nc1ccc(-c2nc3cc(C(F)(F)F)cc(C(F)(F)F)c3o2)cc1 | 0.092 µM | 9.1 µM |
| Cc1ccccc1OCC(=O)Nc1ccc(-c2nc3cc(C(F)(F)F)ccc3o2)cc1 | 0.59 µM | 51 µM |
| Cc1cc(Br)ccc1OCC(=O)Nc1ccc(-c2nc3cc(C#N)ccc3o2)cc1 | 0.011 µM | 4.3 µM |
| COc1cccc(OCC(=O)Nc2ccc(-c3nc4cc(C)cc(C)c4o3)cc2)c1 | > 10 µM |  |
| Cc1ccccc1OCC(=O)Nc1ccc(-c2nc3cc(C#N)ccc3o2)cc1 | 0.057 µM | 3.3 µM |
| Cc1cc(C)c2oc(-c3ccc(NC(=O)COc4ccccc4F)cc3)nc2c1 | > 10 µM |  |
| Cc1cc(C)c2oc(-c3ccc(NC(=O)COc4ccc(Cl)cc4C)cc3)nc2c1 | 0.096 µM | 2.7 µM |
| Cc1cc(C)c2oc(-c3ccc(NC(=O)COc4cccc(C(C)C)c4)cc3)nc2c1 | 0.9 µM | 67 µM |
| Cc1cc(C)c2oc(-c3ccc(NC(=O)COc4ccccc4-c4ccccc4)cc3)nc2c1 | 3.3 µM |  |

| Structure (SMILES) | IC50 [1] | IC50 [2] |
| --- | --- | --- |
| Cc1ccccc1OCC(=O)Nc1ccc(-c2nc3ccc(Cl)cc3o2)cc1 | > 32 µM |  |
| Cc1ccccc1OCC(=O)Nc1ccc(-c2nc3ccc(F)cc3o2)cc1 | > 32 µM |  |
| Cc1cc(C)cc(OCC(=O)Nc2ccc(-c3nc4cc(C)cc(C)c4o3)cc2)c1 | > 10 µM |  |
| Cc1cc(C)c2oc(-c3ccc(NC(=O)COc4cccc(C#N)c4)cc3)nc2c1 | > 10 µM |  |
| Cc1c(Cl)ccc(OCC(=O)Nc2ccc(-c3nc4cc(C#N)ccc4o3)cc2)c1C | 0.01 µM | 0.91 µM |
| Cc1cc(C)c2oc(-c3ccc(NC(=O)COc4ccc(-c5ccccc5)cc4)cc3)nc2c1 | > 10 µM |  |
| COC(=O)c1c(Cl)ccc(OCC(=O)Nc2ccc(-c3nc4cc(C)cc(C)c4o3)cc2)c1C | 0.042 µM | 2.8 µM |
| Cc1ccccc1OCC(=O)Nc1ccc(-c2nc3cc([N+](=O)[O-])ccc3o2)cc1 | 0.12 µM | 18 µM |
| Cc1ccccc1OCC(=O)Nc1ccc(-c2nc3c([N+](=O)[O-])cccc3o2)cc1 | > 32 µM |  |
| COc1ccc(OCC(=O)Nc2ccc(-c3nc4cc(C)cc(C)c4o3)cc2)cc1 | > 10 µM |  |
| Cc1ccc(OCC(=O)Nc2ccc(-c3nc4cc(C)cc(C)c4o3)cc2)cc1 | 0.24 µM | 26 µM |
| Cc1cc(C)c2oc(-c3ccc(NC(=O)COc4ccccc4C#N)cc3)nc2c1 | > 10 µM |  |
| Cc1ccccc1OCC(=O)Nc1ccc(-c2nc3cc(Cl)cc(Br)c3o2)cc1 | 0.097 µM | 26 µM |
| Cc1cc(C)c2oc(-c3ccc(NC(=O)COc4cc(Cl)ccc4Cl)cc3)nc2c1 | > 10 µM |  |
| Cc1ccccc1OCC(=O)Nc1ccc(-c2nc3cc(Cl)ccc3o2)cc1 | 0.47 µM | 21 µM |
| Cc1ccccc1OCC(=O)Nc1ccc(-c2nc3cccc(C)c3o2)cc1 | 1.7 µM | 100 µM |
| Cc1cc(C)c2oc(-c3ccc(NC(=O)COc4ccc(OC(F)(F)F)cc4)cc3)nc2c1 | > 10 µM |  |
| Cc1ccccc1OCC(=O)Nc1ccc(-c2nc3cc(CO)ccc3o2)cc1 | 1.3 µM | 27 µM |
| Cc1cc(C)c2oc(-c3ccc(NC(=O)COc4ccccc4C(C)C)cc3)nc2c1 | > 10 µM |  |
| Cc1cc(C)c2oc(-c3ccc(NC(=O)COc4ccccc4C)cc3)nc2c1 | 0.28 µM | 8.9 µM |
